Measurements as given in patent US20240417435A1, “DEFENSIN-DERIVED PEPTIDE WITH ANTIBACTERIAL ACTIVITY ALSO AGAINST MULTI-ANTIBIOTIC-RESISTANT BACTERIA” (priority 2021, published 2024).
≈ marks a conversion by molar mass, not a printed value. Where a SMILES comes first, the peptide text is derived from it.

Tests used:
[1] = test system: MRSA strain 3 (intracellular, HeLa cells); assay: Invasion and protection assay in HeLa cells; format: cell-based, Staphylococcus aureus; details: MRSA 3 strain in HeLa cells; 40 μM for 1 h; all times tested
Protocol: The S. aureus ATCC 6538, MRSA strain 2 and MRSA strain 3 invasion assays were conducted as previously described (Colicchio R et al., Antimicrob Agents Chemother 2015; 59:7637-49; Spinosa M R et al. Infect Immun 2007; 75:3594-3603). HeLa cells (ATCC CCL-2) were used for the standard invasion and intracellular viability assays. The cells were cultured in DMEM with 2 mM L-glutamine. The cells were infected at a multiplicity of infection (MOI) of 50 for 1 h, washed twice with PBS1× to eliminate most of the extracellular bacteria, exposed to gentamicin (Sigma-Aldrich) to kill the remaining extracellular bacteria, and then destroyed with saponin (0.5%) to release the intracellular bacteria. To quantify the intracellular staphylococci released by the HeLa cells, the lysed cell suspension was plated on BHI agar, and the number of CFUs was counted the next day. When required, cells were re-incubated in the cell culture medium for various times (3 and 5 hours) after treatment with gentamicin. Treatment with gentamicin was conducted using 105 μM, a concentration 10 times higher than the MIC, for 30 minutes at 37° C. with 5% CO2. Cells were then washed thoroughly with PBS1× to remove the gentamicin and dead extracellular bacteria, and then lysed or re-incubated with medium. To evaluate the protection with the reduced peptide γ2 after treatment with gentamicin, the molecule was added to the sample at the final concentration of 40 µM for 1 hour, then washed twice with PBS1×, and finally destroyed with saponin. As the antibacterial activity of the reduced and oxidised peptide γ2 against S. aureus ATCC 6538 was very similar (Table 1), only the reduced form was used in the test. In all the experiments, the bacteria were centrifuged (60×g) on the cells to start the assay. The experiments were conducted in triplicate, and the data were expressed as mean±SD.

A. baumannii MDR 2 = assay: In vitro time-kill kinetics assay; format: cell-based, Acinetobacter baumannii complex
Protocol: (§1) The MIC is indicated by the concentration interval, which comprise the upper growth limit and the first concentration which could not support visible bacterial growth after incubation. The MBC was defined as the lowest concentration at which no viable colonies were observed. The peptide concentrations were 128.0, 64.0, 32.0, 16.0, 8.0, 4.0, 2.0 and 1 μM. For the time-kill studies against the ATCC and MDR strains, the bacteria were cultured in BHI broth until the late log growth phase at 37° C. The bacterial suspensions, containing about 10^6 CFU/ml (adjusted by the spectrophotometer to OD600 nm), were diluted 1:100 in PBS1× and then incubated at 37° C. with or without the peptide, selected at concentrations corresponding to 1, 2 and 4×MIC (as determined above). At baseline and 1, 2, 3 and 5 hours after incubation, a portion of each sample was harvested, diluted in series in PBS1× and seeded on BHI agar. The plates were incubated for […] at 37° C., and the viable bacteria count was conducted by the CFU method. All the data were expressed as mean±SD of three independent experiments.

[2] = test system: P. aeruginosa MDR strain 1; format: cell-based, Pseudomonas aeruginosa
Protocol: (§2) The antimicrobial activity of peptide γ2 was evaluated versus Pseudomonas aeruginosa ATCC 27853, Escherichia coli ATCC 13762 and Staphylococcus aureus ATCC 6538, and versus multidrug-resistant (MDR) clinical isolates of Methicillin-Resistant Staphylococcus aureus (MRSA), extended-spectrum β-lactamase (ESBL)-producing E. coli, P. aeruginosa and Acinetobacter baumannii complex. The isolates were identified by mass spectrometry using the MALDI (matrix-assisted laser desorption/ionisation) mass spectrometer and the biochemical phenotyping method in a VITEKR 2 bioMérieux system (bioMérieux Italia S.p.a., Bagno a Ripoli, Florence, Italy), according to the manufacturer's instructions. The antibiotic susceptibility profile was evaluated with the VITEKR 2 bioMérieux System. The microorganisms were cultured in broth and agar at 37° C. The media used were BD Brain Heart Infusion broth (BHI) (BD, Franklin Lakes, NJ, USA) and BHI agar (OXOID, Basingstoke, Hampshire, UK), BD Trypticase Soy agar with 5% sheep's blood and MacConkey agar (OXOID, Basingstoke, Hampshire, UK). The isolates were stored frozen at −80° C. in BHI broth supplemented with 10% (v/v) glycerol (Carlo Erba Reagents, Milan, Italy) until use, and the work cultures were activated in the respective broths at 37° C. for 15-18 h.
(§3) Assays of the antibacterial activity of peptide γ2, in both reduced and oxidised form, were conducted against P. aeruginosa ATCC 27853, E. coli ATCC 13762, S. aureus ATCC 6538 and MDR clinical isolates. The strains were cultured under aerobic conditions in BHI broth at 37° C. and incubated with peptide γ2 for 2 hours at 37° C. Various concentrations of peptide were used, ranging from 1 μM to 128 μM. Each test was conducted in triplicate with three independent cultures. The minimum inhibitory concentration (MIC) and the minimum bactericidal concentration (MBC) of the peptide were determined with a modified version of the Clinical and Laboratory Standards Institute broth microdilution assay, using a final inoculum concentration of 10^5 CFU/ml, as previously described (Scudiero O et al., Antimicrob Agents Chemother 2010; 54:2312-22; Scudiero O et al. Antimicrob Ag Chemother 2013; 57:1701-8).
as §1

P. aeruginosa ATCC 27853 [3] = format: cell-based, Pseudomonas aeruginosa
Protocol: as §2, §3, §1

[4] = test system: P. aeruginosa MDR strain 2; format: cell-based, Pseudomonas aeruginosa
Protocol: as §2, §3, §1

MRSA strain 1 = format: cell-based, Staphylococcus aureus
Protocol: as §2, §3, §1

MRSA strain 2 = format: cell-based, Staphylococcus aureus
Protocol: as §2, §3, §1

S. aureus ATCC 6538 = format: cell-based, Staphylococcus aureus
Protocol: as §2, §3, §1

MRSA strain 3 = format: cell-based, Staphylococcus aureus
Protocol: as §2, §3, §1

[5] = test system: P. aeruginosa MDR 2 strain; assay: In vitro time-kill kinetics assay; format: cell-based, Pseudomonas aeruginosa
Protocol: as §1

P. aeruginosa ATCC 27853 [6] = assay: In vitro time-kill kinetics assay; format: cell-based, Pseudomonas aeruginosa
Protocol: as §1

With `CC[C@H](C)[C@H](NC(=O)[C@H](CCC(N)=O)NC(=O)[C@H](CCCNC(=N)N)NC(=O)[C@H](CCCNC(=N)N)NC(=O)[C@H](CCCCN)NC(=O)[C@@H]1CCCN1C(=O)[C@H](CC(C)C)NC(=O)[C@H](CS)NC(C)=O)C(=O)NCC(=O)N[C@@H](CCCCN)C(=O)N[C@@H](CO)C(=O)N[C@@H](CO)C(=O)N[C@H](C(=O)N[C@@H](CCCNC(=N)N)C(=O)NCC(=O)N[C@@H](CCCNC(=N)N)C(=O)N[C@@H](CCCCN)C(=O)N[C@@H](CO)C(=O)N[C@@H](CS)C(=O)N[C@@H](CCCCN)C(=O)N[C@@H](CCCCN)C(N)=O)[C@@H](C)O` [Reduced peptide γ2] (Ac-CLPKRRQIGKSSTRGRKSCKK-NH2) the “viable intracellular bacteria (CFU)” value [1] was “great reduction in viable intracellular bacteria”, the “growth and viability in time-kill assay” value (A. baumannii MDR 2; after 2 hours' treatment) was “great reduction in growth and viability” and the “growth and viability in time-kill assay” value (A. baumannii MDR 2; longer observation times, even at 4×MIC) was “slight recovery of growth and viability”. The MBC [2] was 64 µM (≈ 157 µg/mL), the MBC (P. aeruginosa ATCC 27853 [3]) was 1 µM (≈ 2.46 µg/mL) and the MBC [4] was 1 µM (≈ 2.46 µg/mL). For the same molecule, the MIC [4] was 1 µM (≈ 2.46 µg/mL), the MBC (MRSA strain 1) was 1 µM (≈ 2.46 µg/mL) and the MIC (MRSA strain 1) was 1 µM (≈ 2.46 µg/mL). The MBC (MRSA strain 2) was 16 µM (≈ 39.3 µg/mL), the MIC (MRSA strain 2) was 4 to 8 µM and the MBC (S. aureus ATCC 6538) was 1 to 2 µM. For the same molecule, the MBC (MRSA strain 3) was 4 µM (≈ 9.84 µg/mL), the MIC (MRSA strain 3) was 1 µM (≈ 2.46 µg/mL) and the “growth in time-kill assay” value ([5]; peptide at 2×MIC) was “no growth”. For the same molecule, the “growth and viability in time-kill assay” value ([5]; peptide at MIC only) was “initial reduction in growth and viability in the first few hours of observation, whereas at longer times (5 and 7 h) a slight resumption in growth and viability”, the “growth in time-kill assay” value (P. aeruginosa ATCC 27853 [6]; peptide at 2×MIC) was “no growth” and the “growth and viability in time-kill assay” value (P. aeruginosa ATCC 27853 [6]; peptide at MIC only) was “initial reduction in growth and viability in the first few hours of observation, whereas at longer times (5 and 7 h) a slight resumption in growth and viability”.
